In US20260284080A1 (priority 2025, published 2026):

Assay: physchem
Format: physicochemical
From the text: Abiraterone acetate is a white to off-white, non-hygroscopic, crystalline powder.

pKa: 5.19
Structure (SMILES): CC(=O)O[C@H]1CC[C@@]2(C)C(=CC[C@@H]3[C@@H]2CC[C@]2(C)C(c4cccnc4)=CC[C@@H]32)C1 [abiraterone acetate, (3B)-17-(3-pyridinyl) androsta-5,16-dien-3-yl acetate]
